test system: Erythrocyte beta receptor; experiment: Free energy of binding to turkey erythrocyte beta receptor; parameters: unit not given here; conditions: Meleagris gallopavo

Which Delta G does the source give for `CC(C)NC[C@H](O)COc1cccc2c(O)cccc12` here?
Its Delta G is -11.2.

How did the Delta G turn out when `CN[C@@H](C)[C@H](O)c1ccc(O)cc1` was run?
The Delta G was -6.47.

For `C[C@H](N)[C@H](O)c1ccc(O)c(O)c1`, which Delta G is on record?
The Delta G was -9.64.

With `NC[C@H](O)c1ccc(O)c(O)c1` as the compound, how does the Delta G read?
The Delta G was -7.26.

With `CC(Cc1ccc(O)cc1)NC[C@H](O)c1cc(O)cc(O)c1` (some centres not stated) as the compound, how does the Delta G read?
Its Delta G is -8.62.

How did the Delta G turn out when `C[C@H](COc1ccccc1)NC[C@H](O)c1ccc(O)cc1` was run?
Its Delta G is -7.95.

With `CCNC[C@H](O)c1ccc(O)c(O)c1` as the compound, how does the Delta G read?
The Delta G was -7.59.

`CC(C)(Cc1ccccc1)NC[C@H](O)c1ccc(O)c(NS(C)(=O)=O)c1` was tested. Which Delta G did it give?
Its Delta G is -9.64.

For `CC(C)(Cc1ccc(O)cc1)NC[C@H](O)COc1cccc2[nH]ccc12`, which Delta G is on record?
Its Delta G is -14.7.

Which Delta G does the source give for `CC(C)NC[C@H](O)c1ccc(NS(C)(=O)=O)c(O)c1` here?
The Delta G was -6.29.

`C[C@H](NCCc1ccccc1)[C@H](O)c1ccc(O)cc1` was tested. Which Delta G did it give?
Its Delta G is -9.01.

For `CC(C)NC[C@H](O)c1ccc(O)c2ncccc12`, which Delta G is on record?
Its Delta G is -10.4.

With `CC[C@H](NC(C)C)[C@H](O)c1ccc(NS(C)(=O)=O)cc1` as the compound, how does the Delta G read?
Its Delta G is -7.41.

For `CC(C)NC[C@H](O)c1ccc(O)c(CS(C)(=O)=O)c1`, which Delta G is on record?
Its Delta G is -7.85.

For `CC(C)NC[C@@H](O)COc1cccc2ccccc12`, which Delta G is on record?
The Delta G was -11.7.

How did the Delta G turn out when `CC(C)(C)NC[C@H](O)c1ccc(O)c(CO)c1` was run?
Its Delta G is -8.23.

With `CC(C)NC[C@H](O)COc1ccc(N)cc1` as the compound, how does the Delta G read?
The Delta G was -8.96.

`CC(C)(Cc1ccc(O)cc1)NC[C@H](O)c1cc(O)cc(CO)c1` was tested. Which Delta G did it give?
The Delta G was -7.61.

`CC(C)NC[C@H](O)COc1ccc(O)cc1` was tested. Which Delta G did it give?
Its Delta G is -8.91.

Which Delta G does the source give for `CC(C)NC[C@H](O)c1ccc2ccccc2c1` here?
The Delta G was -9.06.

How did the Delta G turn out when `CC(C)NC[C@H](O)c1ccc(Cl)c(Cl)c1` was run?
Its Delta G is -8.83.

How did the Delta G turn out when `CNC[C@H](O)c1cccc(O)c1` was run?
Its Delta G is -6.72.

How did the Delta G turn out when `CC[C@H](NC(C)C)[C@H](O)c1ccc(O)c(O)c1` was run?
The Delta G was -8.02.

For `NC[C@H](O)c1cccc(O)c1`, which Delta G is on record?
The Delta G was -7.23.

How did the Delta G turn out when `CC(C)NC[C@H](O)c1ccc(O)cc1` was run?
The Delta G was -7.54.

How did the Delta G turn out when `CC(C)(C)NC[C@H](O)COC1=CC=CC2C(=O)C=CC=C12` (some centres not stated) was run?
Its Delta G is -11.9.

With `NC[C@H](O)COc1cccc2ccccc12` as the compound, how does the Delta G read?
Its Delta G is -10.9.

For `CCNC[C@H](O)c1cccc(O)c1`, which Delta G is on record?
The Delta G was -6.75.

`CC(C)NCC(O)c1ccc(O)c(O)c1` (configuration not stated) was tested. Which Delta G did it give?
The Delta G was -9.18.

`CC(C)NC[C@H](O)c1cccc(O)c1` was tested. Which Delta G did it give?
The Delta G was -7.99.

How did the Delta G turn out when `CS(=O)(=O)Nc1cc([C@@H](O)CNC2CC2)ccc1O` was run?
Its Delta G is -8.19.

With `CC(C)NC[C@H](O)c1ccc(NS(C)(=O)=O)cc1` as the compound, how does the Delta G read?
Its Delta G is -8.46.

With `COc1ccc(CCNC[C@H](O)COC2=CC=CC3C(=O)C=CC=C23)cc1OC` (some centres not stated) as the compound, how does the Delta G read?
Its Delta G is -11.3.

For `CC(C)NC[C@H](O)c1ccc(O)c(NS(C)(=O)=O)c1`, which Delta G is on record?
Its Delta G is -7.36.

How did the Delta G turn out when `CC(CCc1ccccc1)N[C@@H](C)[C@H](O)c1ccc(O)cc1` (some centres not stated) was run?
The Delta G was -9.55.

With `CC(Cc1ccc(O)cc1)NC[C@H](O)c1ccc(O)c(O)c1` (some centres not stated) as the compound, how does the Delta G read?
Its Delta G is -10.4.

`CC(C)(Cc1ccc(O)cc1)NC[C@H](O)c1ccc(O)c(O)c1` was tested. Which Delta G did it give?
The Delta G was -10.

For `CC(C)NC[C@H](O)COc1cccc2[nH]ccc12`, which Delta G is on record?
The Delta G was -13.

How did the Delta G turn out when `CC(C)NC[C@H](O)COc1ccc(O)c(O)c1` was run?
The Delta G was -9.13.

Which Delta G does the source give for `NC[C@H](O)c1ccc(O)cc1` here?
The Delta G was -5.94.

Which Delta G does the source give for `CNC[C@H](O)c1ccc(O)c(O)c1` here?
The Delta G was -7.86.

With `C=CCc1cccc(OC[C@@H](O)CNC(C)C)c1` as the compound, how does the Delta G read?
The Delta G was -8.82.

For `C=CCc1ccccc1OC[C@@H](O)CNC(C)C`, which Delta G is on record?
The Delta G was -12.1.

How did the Delta G turn out when `COc1ccc(CC(C)NC[C@H](O)c2ccc(O)c(CO)c2)cc1` (some centres not stated) was run?
Its Delta G is -7.65.

For `CNC[C@H](O)c1ccc(O)cc1`, which Delta G is on record?
The Delta G was -6.01.

How did the Delta G turn out when `CC(C)(Cc1ccc(O)cc1)NC[C@H](O)COc1cccc2ccccc12` was run?
The Delta G was -11.2.

How did the Delta G turn out when `CC(=O)Nc1ccc(OC[C@@H](O)CNC(C)C)cc1` was run?
The Delta G was -7.54.

Which Delta G does the source give for `C=CCOc1ccccc1OC[C@@H](O)CNC(C)C` here?
Its Delta G is -11.6.

How did the Delta G turn out when `CNC[C@H](O)c1ccccc1` was run?
Its Delta G is -6.79.

`CC(C)NC[C@H](O)c1cc(O)cc(O)c1` was tested. Which Delta G did it give?
Its Delta G is -7.13.

Which Delta G does the source give for `CC(C)(C)NC[C@H](O)c1cc(O)cc(CO)c1` here?
Its Delta G is -6.58.

`C[C@H](N)[C@H](O)c1ccc(O)cc1` was tested. Which Delta G did it give?
The Delta G was -6.27.

For `CC(Cc1ccc2c(c1)OCO2)NC[C@H](O)c1ccc(O)c(O)c1` (some centres not stated), which Delta G is on record?
The Delta G was -9.88.

For `Oc1ccc(CCNC[C@H](O)COc2cccc3ccccc23)cc1`, which Delta G is on record?
Its Delta G is -10.9.

With `CC(C)NC[C@H](O)COc1ccccc1I` as the compound, how does the Delta G read?
Its Delta G is -12.8.

How did the Delta G turn out when `CC(C)(C)NC[C@H](O)COc1cccc2[nH]ccc12` was run?
The Delta G was -13.5.

How did the Delta G turn out when `O[C@@H](CNc1ccccc1)c1ccccc1` was run?
The Delta G was -5.76.

Reference: ChEMBL document CHEMBL1123401, “Mapping the turkey erythrocyte beta receptor: a distance geometry approach” (J Med Chem, 1986)
